Experimental data as given in patent publication US10150760B2, “Compounds for use in preparing heterocyclic triazole agonists of the APJ receptor” (AMGEN INC., priority 2016, dated 2018).

Biological target: human APJ receptor (Homo sapiens (Human), UniProt P35414)
Test: [35S]GTPγS binding assay on membranes from CHO cells stably expressing human APJ receptor
Format: biochemical
Settings: read-out: Activity hAPJ SPA EC50 IP
Method in brief: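 Agonist-driven [35S]GTPγS (0.2 nM) binding was measured over 90 min at room temperature on human APJ-expressing CHO membranes with bead capture, in buffer containing 3 μM GDP, 200 mM NaCl and 5 mM MgCl2 (pH 7.5). Excess unlabelled GTPγS (100 μM) gave nonspecific signal; EC50 from non-linear fits.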

human APJ receptor, sequence (P35414 whole entry): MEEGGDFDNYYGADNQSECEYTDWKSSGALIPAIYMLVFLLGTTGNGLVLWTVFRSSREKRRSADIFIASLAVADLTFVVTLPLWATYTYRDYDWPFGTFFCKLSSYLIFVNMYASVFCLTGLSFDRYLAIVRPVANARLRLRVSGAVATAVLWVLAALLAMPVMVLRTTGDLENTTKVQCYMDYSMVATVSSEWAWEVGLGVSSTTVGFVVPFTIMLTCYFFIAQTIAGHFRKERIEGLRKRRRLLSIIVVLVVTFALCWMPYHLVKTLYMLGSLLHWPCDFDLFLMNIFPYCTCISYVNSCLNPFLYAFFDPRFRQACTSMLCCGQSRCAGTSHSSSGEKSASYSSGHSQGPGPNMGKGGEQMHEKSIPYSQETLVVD

EC50 [nM] | Compound
14 | COCC(COC)n1c(NS(=O)(=O)[C@@H](C)[C@H](OC)c2ncc(Cl)cn2)nnc1[C@@H]1CCCO1 [Example 332.0, (1R,2S)-1-(5-chloro-2-pyrimidinyl)-N-(4-(1,3-dimethoxy-2-propanyl)-5-((2S)-tetrahydro-2-furanyl)-4H-1,2,4-triazol-3-yl)-1-methoxy-2-propanesulfonamide]
740 | (1R,2)S-1-(5-chloropyrimidin-2-yl)-N-(5-((S)-5,5-dimethyltetrahydrofuran-2-yl)-4-(tetrahydro-2H-pyran-4-yl)-4H-1,2,4-triazol-3-yl)-1-methoxypropane-2-sulfonamide or (1R,2S)-1-(5-chloropyrimidin-2-yl)-N-(5-((R)-5,5-dimethyltetrahydrofuran-2-yl)-4-(tetrahydro-2H-pyran-4-yl)-4H-1,2,4-triazol-3-yl)-1-methoxypropane-2-sulfonamide [Example 222.0]
31 | (1R,2)S-N-(4-(2,6-dimethoxyphenyl)-5-((R)-1,4-dioxan-2-yl)-4H-1,2,4-triazol-3-yl)-1-methoxy-1-(5-methylpyrimidin-2-yl)propane-2-sulfonamide or (1R,2S)-N-(4-(2,6-dimethoxyphenyl)-5-((S)-1,4-dioxan-2-yl)-4H-1,2,4-triazol-3-yl)-1-methoxy-1-(5-methylpyrimidin-2-yl)propane-2-sulfonamide [Example 201.0]
60 | (1R,2S)-1-(5-chloro-2-pyridinyl)-N-(4-(1,3-dimethoxy-2-propanyl)-5-((2R,5R)-5-methyltetrahydro-2-furanyl)-4H-1,2,4-triazol-3-yl)-1-methoxy-2-propanesulfonamide or (1R,2S)-1-(5-chloro-2-pyridinyl)-N-(4-(1,3-dimethoxy-2-propanyl)-5-((2S,5S)-5-methyltetrahydro-2-furanyl)-4H-1,2,4-triazol-3-yl)-1-methoxy-2-propanesulfonamide [Example 380.0]
2.1 | (1R,2S)-1-(5-chloro-2-pyridinyl)-N-(4-(1,3-dimethoxy-2-propanyl)-5-((2R,5R)-5-methyltetrahydro-2-furanyl)-4H-1,2,4-triazol-3-yl)-1-methoxy-2-propanesulfonamide or (1R,2S)-1-(5-chloro-2-pyridinyl)-N-(4-(1,3-dimethoxy-2-propanyl)-5-((2S,5S)-5-methyltetrahydro-2-furanyl)-4H-1,2,4-triazol-3-yl)-1-methoxy-2-propanesulfonamide [Example 381.0]
14 | (1R,2S)-1-(5-chloro-2-pyrimidinyl)-N-(4-(1,3-dimethoxy-2-propanyl)-5-((2R)-5,5-dimethyltetrahydro-2-furanyl)-4H-1,2,4-triazol-3-yl)-1-methoxy-2-propanesulfonamide or (1R,2S)-1-(5-chloro-2-pyrimidinyl)-N-(4-(1,3-dimethoxy-2-propanyl)-5-((2S)-5,5-dimethyltetrahydro-2-furanyl)-4H-1,2,4-triazol-3-yl)-1-methoxy-2-propanesulfonamide [Example 307.0]
410 | (1R,2S)-1-(5-chloro-2-pyrimidinyl)-N-(4-(1,3-dimethoxy-2-propanyl)-5-((2R)-5,5-dimethyltetrahydro-2-furanyl)-4H-1,2,4-triazol-3-yl)-1-methoxy-2-propanesulfonamide or (1R,2S)-1-(5-chloro-2-pyrimidinyl)-N-(4-(1,3-dimethoxy-2-propanyl)-5-((2S)-5,5-dimethyltetrahydro-2-furanyl)-4H-1,2,4-triazol-3-yl)-1-methoxy-2-propanesulfonamide [Example 308.0]
250 | (1R,2S)-1-(5-chloro-2-pyrimidinyl)-N-(4-(1,3-dimethoxy-2-propanyl)-5-((2S,5S)-5-methyltetrahydro-2-furanyl)-4H-1,2,4-triazol-3-yl)-1-methoxy-2-propanesulfonamide or (1R,2S)-1-(5-chloro-2-pyrimidinyl)-N-(4-(1,3-dimethoxy-2-propanyl)-5-((2R,5R)-5-methyltetrahydro-2-furanyl)-4H-1,2,4-triazol-3-yl)-1-methoxy-2-propanesulfonamide [Example 252.0]
6.3 | (1R,2S)-1-(5-chloro-2-pyrimidinyl)-N-(4-(1,3-dimethoxy-2-propanyl)-5-((2S,5S)-5-methyltetrahydro-2-furanyl)-4H-1,2,4-triazol-3-yl)-1-methoxy-2-propanesulfonamide or (1R,2S)-1-(5-chloro-2-pyrimidinyl)-N-(4-(1,3-dimethoxy-2-propanyl)-5-((2R,5R)-5-methyltetrahydro-2-furanyl)-4H-1,2,4-triazol-3-yl)-1-methoxy-2-propanesulfonamide [Example 253.0]
740 | (1R,2S)-1-(5-chloro-2-pyrimidinyl)-N-(4-(1,3-dimethoxy-2-propanyl)-5-((3S)-tetrahydro-3-furanyl)-4H-1,2,4-triazol-3-yl)-1-methoxy-2-propanesulfonamide or (1R,2S)-1-(5-chloro-2-pyrimidinyl)-N-(4-(1,3-dimethoxy-2-propanyl)-5-((3R)-tetrahydro-3-furanyl)-4H-1,2,4-triazol-3-yl)-1-methoxy-2-propanesulfonamide [Example 305.0]
900 | (1R,2S)-1-(5-chloro-2-pyrimidinyl)-N-(4-(1,3-dimethoxy-2-propanyl)-5-((3S)-tetrahydro-3-furanyl)-4H-1,2,4-triazol-3-yl)-1-methoxy-2-propanesulfonamide or (1R,2S)-1-(5-chloro-2-pyrimidinyl)-N-(4-(1,3-dimethoxy-2-propanyl)-5-((3R)-tetrahydro-3-furanyl)-4H-1,2,4-triazol-3-yl)-1-methoxy-2-propanesulfonamide [Example 306.0]
1.2 | (1R,2S)-1-(5-chloropyridin-2-yl)-N-(4-(2,6-dimethoxyphenyl)-5-((R)-1,4-dioxan-2-yl)-4H-1,2,4-triazol-3-yl)-1-methoxypropane-2-sulfonamide or (1R,2S)-1-(5-chloropyridin-2-yl)-N-(4-(2,6-dimethoxyphenyl)-5-((S)-1,4-dioxan-2-yl)-4H-1,2,4-triazol-3-yl)-1-methoxypropane-2-sulfonamide [Example 264.0]
2.7 | (1R,2S)-1-(5-chloropyrimidin-2-yl)-1-methoxy-N-(4-(1-methylcyclopropyl)-5-((2S,5S)-5-methyltetrahydrofuran-2-yl)-4H-1,2,4-triazol-3-yl)propane-2-sulfonamide or (1R,2S)-1-(5-chloropyrimidin-2-yl)-1-methoxy-N-(4-(1-methylcyclopropyl)-5-((2R,5R)-5-methyltetrahydrofuran-2-yl)-4H-1,2,4-triazol-3-yl)propane-2-sulfonamide [Example 199.0]
290 | (1R,2S)-1-(5-chloropyrimidin-2-yl)-1-methoxy-N-(4-(1-methylcyclopropyl)-5-((2S,5S)-5-methyltetrahydrofuran-2-yl)-4H-1,2,4-triazol-3-yl)propane-2-sulfonamide or (1R,2S)-1-(5-chloropyrimidin-2-yl)-1-methoxy-N-(4-(1-methylcyclopropyl)-5-((2R,5R)-5-methyltetrahydrofuran-2-yl)-4H-1,2,4-triazol-3-yl)propane-2-sulfonamide [Example 200.0]

Compound | EC50 [nM]
CO[C@H](c1ncc(Cl)cn1)[C@H](C)S(=O)(=O)Nc1nnc([C@@H]2CCCO2)n1-c1ccccc1Cl [Example 243.0, (1R,2S)-N-(4-(2-chlorophenyl)-5-((2S)-tetrahydro-2-furanyl)-4H-1,2,4-triazol-3-yl)-1-(5-chloro-2-pyrimidinyl)-1-methoxy-2-propanesulfonamide] | 5.6
CO[C@H](c1ncc(Cl)cn1)[C@H](C)S(=O)(=O)Nc1nnc([C@@H]2CCCO2)n1-c1ccccc1F [Example 244.0, (1R,2S)-1-(5-chloro-2-pyrimidinyl)-N-(4-(2-fluorophenyl)-5-((2S)-tetrahydro-2-furanyl)-4H-1,2,4-triazol-3-yl)-1-methoxy-2-propanesulfonamide] | 21
COCC(COC)n1c(NS(=O)(=O)[C@@H](C)[C@H](OC)c2ncc(Cl)cn2)nnc1[C@H]1CCCO1 [Example 330.0, (1R,2S)-1-(5-chloro-2-pyrimidinyl)-N-(4-(1,3-dimethoxy-2-propanyl)-5-((2R)-tetrahydro-2-furanyl)-4H-1,2,4-triazol-3-yl)-1-methoxy-2-propanesulfonamide] | 160
COc1cccc(OC)c1-n1c(NS(=O)(=O)CCc2ccc(F)cc2C#N)nnc1[C@@H]1CCOC1 [Example 345.0, (S)-2-(2-cyano-4-fluorophenyl)-N-(4-(2,6-dimethoxyphenyl)-5-(tetrahydrofuran-3-yl)-4H-1,2,4-triazol-3-yl) ethanesulfonamide] | 100
COc1cccc(OC)c1-n1c(NS(=O)(=O)CCc2ncc(Cl)cn2)nnc1[C@@H]1CCOC1 [Example 386.0, 2-(5-chloro-2-pyrimidinyl)-N-(4-(2,6-dimethoxyphenyl)-5-((3S)-tetrahydro-3-furanyl)-4H-1,2,4-triazol-3-yl)ethanesulfonamide] | 81
COc1cccc(OC)c1-n1c(NS(=O)(=O)CCc2ncc(Cl)cn2)nnc1[C@@H]1CCCO1 [Example 388.0, 2-(5-chloro-2-pyrimidinyl)-N-(4-(2,6-dimethoxyphenyl)-5-((2S)-tetrahydro-2-furanyl)-4H-1,2,4-triazol-3-yl)ethanesulfonamide] | 9.8
COc1cccc(OC)c1-n1c(NS(=O)(=O)CCc2ncc(Cl)cn2)nnc1[C@H]1CCCO1 [Example 389.0, 2-(5-chloro-2-pyrimidinyl)-N-(4-(2,6-dimethoxyphenyl)-5-((2R)-tetrahydro-2-furanyl)-4H-1,2,4-triazol-3-yl)ethanesulfonamide] | 96
